Converted amounts (≈) assume the structure as drawn. “And” between values parts separate entries of the source, which are not always exact repeats. Equal values may be shown once.
How the values were obtained:
[1] = DPPH assay (antioxidant potential); details: DPPH 100 μM; 30 minutes at 37 °C; triplicate
Description: DPPH assay as reported earlier was used to determine the antioxidant potential of newly synthesised compound.[46] For experiment, […] (100 μM) solution was mixed with 5 μl of sample compounds and ascorbic acid (positive control) at concentration of 100, 50 and 25 μM in 96-well plate respectively. Plate was incubated in dark for 30 minutes at 37 °C and then absorbance was measured at 515 nm using Elx800 microtiter plate reader. The experiment was performed in triplicate and percentage scavenging was calculated as following:Percentage scavenging (%) = [1 − absorbance of sample/absorbance of control] × 100

[2] = system: Bacillus subtilis, Staphylococcus aureus, Escherichia coli and Pseudomonas aeruginosa; assay: Antibacterial disc diffusion assay, all four tested strains; assay type: cell-based
Description: (§1) Anti-bactericidal activity of the compounds was determined by using disc diffusion method. […] The assay was performed in triplicate and Kanamycin was used as positive control. […] According to Yildiz et al.[39] the antibacterial activity of a substitution connected to a biologically active molecule may be increased.
(§2) Disc diffusion assay was used to determine the antibacterial potential of newly synthesised compounds as reported earlier.[45] For experiment, 1% inoculum of Bacillus subtilis, Staphylococcus aureus, Escherichia coli and Pseudomonas aeruginosa was transferred to autoclaved nutrient agar media (23 g l^−1) respectively. Then media were poured in respective plates and allowed to solidify. Samples (100 μM) and Kanamycin drug (10 μM) was loaded on sterile paper disc (5 mm) and these discs were placed on Petriplates at appropriate distance. Plates were incubated for 24 hours at 37 °C and zone of inhibition were measured using Vernier calliper.

[3] = target: α-amylase; assay type: biochemical; details: starch substrate; pH 6.8; 30 minutes at 50 °C; triplicate
Description: α-Amylase inhibition assay was performed to calculate the enzyme inhibition potential of newly synthesised compounds.[48] […] In blank 40 μl starch and 50 μl phosphate buffer was added. […] Then absorbance was measured at 540 nm using Elx800 microtiter plate reader.

[4] = system: Bacillus subtilis; assay: Antibacterial disc diffusion assay; assay type: cell-based; details: for MIC / zone of inhibition at 100 µM: Bacillus subtilis
Description: as §1, §2

[5] = system: Escherichia coli; assay: Antibacterial disc diffusion assay; assay type: cell-based
Description: as §1, §2

[6] = system: Staphylococcus aureus; assay: Antibacterial disc diffusion assay; assay type: cell-based
Description: as §1, §2

[7] = system: Pseudomonas aeruginosa; assay: Antibacterial disc diffusion assay; assay type: cell-based
Description: as §1, §2

[8] = target: urease (Canavalia ensiformis, UniProt P07374); details: read-out: Urease IC50; 100 mM urea; pH 8.2; 37 °C; triplicate
[9] = disc diffusion, samples 100 μM, Kanamycin 10 μM on disc, 24 hours at 37 °C

urease, sequence (P07374 whole entry, looked up, the tested form may be a part): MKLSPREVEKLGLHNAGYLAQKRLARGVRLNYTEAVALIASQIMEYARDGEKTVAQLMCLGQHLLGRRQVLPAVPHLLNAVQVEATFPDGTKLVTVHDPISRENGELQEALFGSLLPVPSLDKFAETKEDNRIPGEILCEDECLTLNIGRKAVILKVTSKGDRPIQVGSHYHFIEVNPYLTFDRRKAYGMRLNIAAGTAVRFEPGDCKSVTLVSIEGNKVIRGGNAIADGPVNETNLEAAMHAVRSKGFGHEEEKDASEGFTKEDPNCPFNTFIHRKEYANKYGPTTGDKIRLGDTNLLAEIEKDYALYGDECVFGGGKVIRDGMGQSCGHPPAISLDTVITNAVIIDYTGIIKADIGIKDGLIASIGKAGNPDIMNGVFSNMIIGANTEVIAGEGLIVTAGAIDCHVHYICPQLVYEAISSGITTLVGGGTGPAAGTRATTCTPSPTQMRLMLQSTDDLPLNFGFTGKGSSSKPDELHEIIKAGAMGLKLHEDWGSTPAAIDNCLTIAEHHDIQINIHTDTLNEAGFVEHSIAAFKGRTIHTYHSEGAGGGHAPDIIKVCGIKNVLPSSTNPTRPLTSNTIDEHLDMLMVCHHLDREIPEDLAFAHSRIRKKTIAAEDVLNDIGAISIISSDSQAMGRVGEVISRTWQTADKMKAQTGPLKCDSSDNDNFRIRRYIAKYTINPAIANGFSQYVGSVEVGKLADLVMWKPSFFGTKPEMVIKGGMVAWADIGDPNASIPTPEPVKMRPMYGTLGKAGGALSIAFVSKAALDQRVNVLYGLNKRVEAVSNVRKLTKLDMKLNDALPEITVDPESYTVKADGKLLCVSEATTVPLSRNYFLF

Row | Structure (SMILES) | IC50 [1] | antibacterial activity against tested bacterial strains [2] | IC50 [3] [µM] | melting point [°C] | also measured
1 | COc1ccccc1Nc1nc(C)c(C(=O)NC23CC4CC(CC(C4)C2)C3)s1 [Compound 6e, N-(Adamantan-1-yl)-4-methyl-2-((2-methoxyphenyl)amino)thiazole-5-carboxamide] | 110.3 ± 0.76 µM | no antibacterial activity | > 100 | 210 to 212 | α-Amylase IC50 [3]: inactive
2 | O=C1O[C@H]([C@@H](O)CO)C(O)=C1O [Ascorbic acid, reference compound] | 0.892 µM and 0.89 µM |  |  |  | 
3 | Cc1nc(Nc2ccc(Br)cc2)sc1C(=O)NC12CC3CC(CC(C3)C1)C2 [Compound 6c, N-(Adamantan-1-yl)-4-methyl-2-((4-bromophenyl)amino)thiazole-5-carboxamide] | 126 ± 2.66 µM | activity against one bacterial strain out of four | > 100 | 277 to 280 | MIC [4]: 75 µM (≈ 33.5 µg/mL); zone of inhibition at 100 µM [4, 9]: 7 mm
4 | Cc1nc(Nc2ccccc2Cl)sc1C(=O)NC12CC3CC(CC(C3)C1)C2 [Compound 6g, N-(Adamantan-1-yl)-4-methyl-2-((2-chlorophenyl)amino)thiazole-5-carboxamide] | 122 ± 6.54 µM | activity against one bacterial strain out of four | > 100 | 202 to 203 | MIC [4]: 75 µM (≈ 30.1 µg/mL); zone of inhibition at 100 µM [4, 9]: 7 mm
5 | NC[C@H]1O[C@H](O[C@H]2[C@H](O)[C@@H](O[C@H]3O[C@H](CO)[C@@H](O)[C@H](N)[C@H]3O)[C@H](N)C[C@@H]2N)[C@H](O)[C@@H](O)[C@@H]1O [Kanamycin, reference compound] |  |  |  |  | MIC Escherichia coli [5]: MIC = 25 μM; Antibacterial zone of inhibition Escherichia coli [5, 9]: 20 mm; MIC Staphylococcus aureus [6]: MIC = 20 μM; Antibacterial zone of inhibition Staphylococcus aureus [6, 9]: 24 mm; MIC Pseudomonas aeruginosa [7]: MIC = 20 μM; Antibacterial zone of inhibition Pseudomonas aeruginosa [7, 9]: 22 mm; MIC Bacillus subtilis [4]: MIC = 25 μM; Antibacterial zone of inhibition Bacillus subtilis [4, 9]: 21 mm
6 | Cc1nc(Nc2ccc(NS(C)(=O)=O)c(Oc3ccccc3)c2)sc1C(=O)NC12CC3CC(CC(C3)C1)C2 [Compound 6h, N-Adamantyl-4-methyl-2-((4-(methylsulfonamido)-3-phenoxyphenyl)amino) thiazole-5-carboxamide] | 64.1 ± 0.71 µM |  | > 100 | 156 to 160 | 
7 | Cc1nc(Nc2ccc([N+](=O)[O-])cc2)sc1C(=O)NC12CC3CC(CC(C3)C1)C2 [Compound 6b, N-(Adamantan-1-yl)-4-methyl-2-((4-nitrophenyl)amino)thiazole-5-carboxamide] | 108 ± 1.93 µM | no antibacterial activity | > 100 | 300 to 303 | 
8 | Cc1nc(N)sc1C(=O)NC12CC3CC(CC(C3)C1)C2 [Compound 6a, N-(Adamantan-1-yl)-2-amino-4-methylthiazole-5-carboxamide] | 157 ± 10.3 µM | significant antibacterial activity | 118.3 ± 0.71 | 256 to 257 | MIC ([5]; Escherichia coli): 50 µM (≈ 14.6 µg/mL); zone of inhibition at 100 µM ([5]; Escherichia coli, disc diffusion, samples 100 μM, Kanamycin 10 μM on disc, 24 hours at 37 °C): 11 mm; MIC ([6]; Staphylococcus aureus): 75 µM (≈ 21.9 µg/mL); zone of inhibition at 100 µM ([6]; Staphylococcus aureus, disc diffusion, samples 100 μM, Kanamycin 10 μM on disc, 24 hours at 37 °C): 8 mm; MIC ([7]; Pseudomonas aeruginosa): 50 µM (≈ 14.6 µg/mL); zone of inhibition at 100 µM ([7]; Pseudomonas aeruginosa, disc diffusion, samples 100 μM, Kanamycin 10 μM on disc, 24 hours at 37 °C): 10 mm; MIC [4]: 50 µM (≈ 14.6 µg/mL); zone of inhibition at 100 µM [4, 9]: 13 mm
9 | COc1ccc(Nc2nc(C)c(C(=O)NC34CC5CC(CC(C5)C3)C4)s2)cc1 [Compound 6d, N-(Adamantan-1-yl)-4-methyl-2-((4-methoxyphenyl)amino)thiazole-5-carboxamide] | 19.2 ± 0.37 µM | no antibacterial activity | 97.4 ± 1.53 | 226 to 229 | 
10 | NC(N)=S [Thiourea] |  |  |  |  | IC50 [8]: 1330 nM
11 | Cc1nc(NC23CC4CC(CC(C4)C2)C3)sc1C(=O)NC12CC3CC(CC(C3)C1)C2 [Compound 6j, N-Adamantanyl-2-(((3s,5s,7s)-adamantan-1-yl)amino)-4-methylthiazole-5-carboxamide] | 137.9 ± 0.9 µM |  | > 100 | 250 to 253 | 
12 | Cc1nc(Nc2cccc(Cl)c2)sc1C(=O)NC12CC3CC(CC(C3)C1)C2 [Compound 6f, N-(Adamantan-1-yl)-4-methyl-2-((3-chlorophenyl)amino)thiazole-5-carboxamide] | 136.7 ± 1.33 µM | no antibacterial activity | > 100 | 253 to 254 | 
13 | Cc1nc(Nc2cccc(F)c2)sc1C(=O)NC12CC3CC(CC(C3)C1)C2 [Compound 6i, N-Adamantyl-2-((3-fluorophenyl)amino)-4-methylthiazole-5-carboxamide] | 131 ± 1.11 µM |  | > 100 | 220 to 225 | 

From PMC10442672, “Synthesis of amantadine clubbed N-aryl amino thiazoles as potent urease, α-amylase & α-glucosidase inhibitors, kinetic and molecular docking studies” (RSC Advances, 2023)
